Laboratory results published in patent US20130116148A1, “LIVER DISEASE MARKER, METHOD AND APPARATUS FOR MEASURING THE SAME, AND METHOD FOR ASSAYING PHARMACEUTICAL PREPARATION” (KEIO UNIVERSITY, priority 2010, published 2013).

What was measured:
[1] = system: glutathione-biosynthesis pathway; test: Administration of BSO and DEM to mice; γ-Glu-X and γ-Glu-X-Gly peptides in the murine serum; format: in vivo; conditions: mouse serum, compared to the normal state
Protocol: Male mice were fasted overnight and anesthetized by an intraperitoneal injection of pentobarbital sodium (60 mg/Kg of body weight). Then, the mice were intraperitoneally injected with BSO, which is aγ-glutamyl cysteine synthase (GCS) inhibitor, and diethylmaleate (DEM), which is an electrophile (GCS activator), both at a dose of 4 mmol/kg of body weight (888 mg of BSO, 688 mg of DEM). The mouse as a healthy subject was intraperitoneally injected with physiological saline. Liver specimens (about 300 mg) were excised from the mice 1 hour after administration (5 times each). On the other hand, regarding the substances in the murine serum, γ-Glu-X peptides and γ-Glu-X-Gly peptides that were decreased by administration of BSO and were increased by administration of an electronic substance, DEM, compared to the normal state were only γ-[…]AB and ophthalmic acid (γ-[…]AB-Gly) (FIG. 22). Therefore, it is expected that, in the case of a mouse, only γ-[…]AB and ophthalmic acid are increased in the blood when glutathione is decreased because of the oxidative stress caused by electrophiles or the like.

[2] = system: glutathione-biosynthesis pathway; test: Administration of GCS inhibitor BSO and GCS activator DEM to mice; metabolites in the livers by CE-TOFMS; format: in vivo; conditions: mouse liver
Protocol: Male mice were fasted overnight and anesthetized by an intraperitoneal injection of pentobarbital sodium (60 mg/Kg of body weight). Then, the mice were intraperitoneally injected with BSO, which is aγ-glutamyl cysteine synthase (GCS) inhibitor, and diethylmaleate (DEM), which is an electrophile (GCS activator), both at a dose of 4 mmol/kg of body weight (888 mg of BSO, 688 mg of DEM). The mouse as a healthy subject was intraperitoneally injected with physiological saline. Liver specimens (about 300 mg) were excised from the mice 1 hour after administration (5 times each).
The liver specimens (about 300 mg) excised from the mice were immediately placed in 1 ml of methanol containing an internal standard substance and were homogenized to inactivate an enzyme, thereby stopping enhancement of metabolism. After 500 μl of pure water was added to the mixture, 300 μl of solution was taken out. To this solution, 200 μl of chloroform was added. After thorough stirring, the solution was further centrifuged at 15000 rpm for 15 minutes at 4° C. After allowing to stand, 300 μl of separated water-methanol phase was passed through a 5 kDa molecular weight cutoff filter for centrifugal ultrafiltration to deproteinize it. […]
The method described below was used to confirm that the detected γ-Glu-X peptides and γ-Glu-X-Gly peptides were synthesized in a glutathione-biosynthesis pathway.

glutathione = conditions: mouse, large quantities of APAP, cited from earlier work

Compound	γ-Glu-2AB and ophthalmic acid (γ-Glu-2AB-Gly) in the murine serum [1]	amount of glutathione in the livers ([2]; 1 hour after i.p. 4 mmol/kg, compared to the healthy mouse)	γ-Glu-X and γ-Glu-X-Gly peptidic substances in the liver other than γ-Glu-Cys, GSH and γ-Glu-Ser-Gly ([2]; compared to the normal)	ophthalmic acid (glutathione; in inverse proportion to the glutathione level)	glutathione (glutathione)
CCCCS(=N)(=O)CCC(N)C(=O)O (centres unmarked) [BSO, buthionine sulfoximine]	decreased	decreased rapidly	decreased		
CC(=O)Nc1ccc(O)cc1 [APAP, Acetaminophen]				increased rapidly	decreased
